The values that follow come from patent US7759391B2, “Pharmaceutical composition comprising thiacremonone for treating colon cancer” (Chungbuk National University Industry Academic Cooperation …, priority 2007, dated 2010).

One series deals with T1, NF-κB (Homo sapiens, UniProt Q04206).
T1 construct: endogenous in cells; host or cells: SW620 and HCT116 human colon cancer cells (ATCC)
Briefly: Gel electromobility shift assay (EMSA), NF-κB DNA binding activity, SW620. As to conditions: SW620, 30-150 μg/ml, 1 h. Format: cell-based. The method, then:
FIG. 1A: Nuclear extract from SW620 (panel a) and HCT116 (panel b) colon cancer cells treated with thiacremonone (30-150 μg/ml) for 1 h was incubated in binding reactions of ^32P-end-labeled oligonucleotide containing the κB sequence. The activation of NF-κB was investigated using EMSA as described in Materials and Methods. For competition assays, nuclear extracts from cells treated with TNF-α were incubated for 1 h before EMSA with unlabled NF-κB oligonucleotide or labeled NF-κB oligonucleotide. For supershift assays, nuclear extracts from cells treated with TNF-α were incubated for 1 h before EMSA with specific antibodies against the p50 and p65 NF-κB isoforms. SS indicates supershift assay using p65 antibody (panel c). Quantification of band intensities from three independent experimental results performed by densitometry (Imaging System) and the value under each band indicated as fold difference from the untreated control group.
Gel shift assay was performed according to the manufacturer's recommendations (Promega, Madison, Wis., USA). […] The relative density of the DNA-protein binding bands was scanned by densitometry using MyImage (SLB, Seoul, Korea), and quantified by Labworks 4.0 software (UVP Inc., Upland, Calif., USA).
For orientation: Mobility shift assays separate free from complexed probe on a gel.

For series [1], the system named is normal colon Caco-2 cells. In words: Cell viability, CCK-8 assay, normal cells. The format is cell-based. As to conditions: Caco-2, 30-150 μg/ml, 12-48 h. The method, then: Panel b of FIGS. 2A-2C: Cell viability was determined by CCK-8 assay as described in Materials and Methods. SW620 (FIG. 2A) and HCT116 (FIG. 2B) colon cancer cells as well as normal cells (Caco-2) (FIG. 2C) were treated with various doses (30-150 μg/ml) of thiacremonone for different times (12-48 h). Values are each the mean±S.D. of three experiments, each performed in triplicate.
SW620 and HCT116 colon cancer cells were plated at a density of 10^4 cells/well in 96-well plates per 100 μl medium. To determine the appropriate concentration that is not cytotoxic to the cells, the cytotoxic effect was evaluated in cells cultured for 12, 24, 36, and 48 h using the cell counting kit-8 assay kit according to the manufacturer's instructions (Dojindo, Gaithersburg, Md., USA). Briefly, 10 μl of the CCK-8 solution was added to cells cultured for the designated time. The plates were incubated for 1-4 h in the incubator. The resulting color was assayed at […] using a microplate absorbance reader (Sunrise, Tecan, Switzerland). Each assay was carried out in triplicate.

For a further series, the system named is SW620 colon cancer cells. Briefly: Apoptosis detection, DAPI/TUNEL staining, SW620. As to conditions: 24 h. Format: cell-based, human. The procedure: FIG. 3B: The apoptotic index was determined as the DAPI-stained TUNEL-positive cell number counted. Values are mean±S.E.M. of three experiments, each performed in triplicate. *P<0.05 indicates statistically significant differences from the untreated group.
Apoptosis assay was first performed by using 4,6-diamino-2-phenylindole (DAPI) staining. SW620 and HCT116 human colon cancer cells were cultured in the absence or presence of increasing concentrations of thiacremonone, and induction of apoptotic cell death was evaluated after 24 h. Apoptotic cells were determined by the morphological changes after DAPI staining under fluorescence microscopic observation (DAS microscope, 100× or 200×: Leica Microsystems, Inc., Deefield, Ill., USA). Apoptosis was also evaluated by TUNEL staining assay. In short, cells were cultured on 8-chamber slides. After treatment with thiacremonone (30-150 μg/ml) for 24 h, the cells were washed twice with PBS and fixed by incubation in 4% paraformaldehyde in PBS for 1 h at room temperature. TUNEL assays were performed by using the in situ Cell Death Detection Kit (Roche Diagonostics GmbH, Mannheim, Germany) according to manufacturer's instructions. Total number of cells in a given area was determined by using DAPI and TUNEL staining. The apoptotic index was determined as the number of DAPIstained TUNEL-positive cells divided by the total cell number counted ×100.

The test system of another series is SW620 xenograft. In words: SW620 colon xenograft in nude mice. The format is in vivo. The conditions noted are these: for tumor volume, % of sham control group: day 31. The source says: To elucidate the anticancer effect of thiacremonone in vivo, the tumor growth on colon xenograft bearing nude mice following thiacremonone treatments were investigated. In SW620 xenograft studies, thiacremonone was administrated intraperitoneally twice per week for 4 weeks to mice with tumors ranging from 100 to 300 mm3 of tumor volume. The mice were weighted twice per week. The change of body weights between saline and thiacremonone-administrated mice (n=10) was not different during the experiment.
FIG. 5 represents the relative tumor growth delay measured after treatment of thiacremonone (240 and 360 mg/kg for four weeks, n=10) in comparison with the sham control group (saline).

T1 sequence (Q04206 whole entry): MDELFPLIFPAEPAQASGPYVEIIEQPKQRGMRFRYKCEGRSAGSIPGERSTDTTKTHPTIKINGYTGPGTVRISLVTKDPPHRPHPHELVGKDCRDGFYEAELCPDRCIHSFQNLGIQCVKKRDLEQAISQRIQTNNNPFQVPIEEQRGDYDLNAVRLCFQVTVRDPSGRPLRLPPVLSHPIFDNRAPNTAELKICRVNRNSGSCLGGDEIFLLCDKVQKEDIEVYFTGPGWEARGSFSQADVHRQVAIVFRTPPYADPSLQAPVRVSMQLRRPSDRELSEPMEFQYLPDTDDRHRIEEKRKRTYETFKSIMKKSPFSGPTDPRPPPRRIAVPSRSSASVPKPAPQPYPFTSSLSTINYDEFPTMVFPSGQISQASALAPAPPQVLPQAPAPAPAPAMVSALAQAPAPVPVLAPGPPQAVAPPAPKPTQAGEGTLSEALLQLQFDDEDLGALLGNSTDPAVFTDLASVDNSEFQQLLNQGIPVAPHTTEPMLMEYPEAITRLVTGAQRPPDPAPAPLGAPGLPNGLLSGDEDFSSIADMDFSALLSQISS
T1 sequence (P19838 1-433 partner limits assumed): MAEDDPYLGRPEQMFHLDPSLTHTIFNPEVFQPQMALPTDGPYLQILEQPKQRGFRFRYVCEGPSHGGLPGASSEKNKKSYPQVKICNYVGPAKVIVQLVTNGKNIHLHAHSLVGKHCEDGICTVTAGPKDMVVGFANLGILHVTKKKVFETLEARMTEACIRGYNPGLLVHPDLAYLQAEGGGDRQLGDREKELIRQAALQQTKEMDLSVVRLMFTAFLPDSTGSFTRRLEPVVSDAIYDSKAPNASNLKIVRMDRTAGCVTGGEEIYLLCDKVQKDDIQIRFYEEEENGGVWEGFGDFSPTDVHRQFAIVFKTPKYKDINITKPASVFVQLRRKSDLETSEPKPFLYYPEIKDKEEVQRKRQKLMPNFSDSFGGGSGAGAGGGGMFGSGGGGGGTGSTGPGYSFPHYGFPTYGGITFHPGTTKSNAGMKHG

Turning to `CC1=C(O)C(=O)C(C)(O)S1` (stereo not shown) [thiacremonone, 2,4-dihydroxy-2,5-dimethyl-thiophene-3-one], the “DNA binding activity of NF-κB” value at NF-κB is listed as “decreased DNA binding activity of NF-κB in a dose-dependent manner”. Also, the cytotoxic effect entry in series [1] was “no cytotoxic effect”. Further, the “apoptotic cell number (DAPI-positive TUNEL-stained cells)” value is given as 0% in the series on SW620 colon cancer cells (SW620, 30 μg/ml); 0% in the series on SW620 colon cancer cells (SW620, 60 μg/ml); 11% with SW620 colon cancer cells (SW620, 90 μg/ml); 25% in the series with SW620 colon cancer cells (SW620, 120 μg/ml); 97% with SW620 colon cancer cells (SW620, 150 μg/ml). Also, the “tumor volume, % of sham control group” value in the series with SW620 xenograft (240 mg/kg intraperitoneally twice per week for 4 weeks) is given as 92.5%; with SW620 xenograft (360 mg/kg intraperitoneally twice per week for 4 weeks) it was 59.1%. Also, the “change of body weights versus saline” value with SW620 xenograft (intraperitoneally twice per week for 4 weeks, nude mice) is listed as “not different”.
